In patent publication US5776899A, “Polypeptide and anti-HIV agent prepared therefrom” (Seikagaku Corporation, priority 1993, dated 1998):
In brackets after ≈: the same amount, converted by molar mass. Entries after “also recorded” stand apart in the source; their conditions may differ. Positions of bridges follow the written chain, without caps; N, C: chain ends. Non-standard residues stand in square brackets, D forms with d. Residues, ends and D or L forms follow the SMILES beside them. *: point of attachment. FITC = O=C1OC2(c3ccc(O)cc3Oc3cc(O)ccc32)c2ccc(NC(=S)*)cc21; Myristoyl = CCCCCCCCCCCCCC(=O)*; dOrn = NCCC[C@@H](N)C(=O)O; GABA = NCCCC(=O)O

Key:
[1] = test system: human immunodeficiency virus (HIV); test: Antiviral activity against HIV in HIV-infected MT-4 cells (MTT method); assay type: cell-based; settings: for SI: rough ratio CC50/EC50
Procedure: (§1) HIV-infected MT-4 cells (2.5×10^4 cells/well, multiplicity of infection (MOI): 0.001) immediately after infection were added together with the test substance with various changes of the concentration to a 96-well microtitre plate. After incubation at 37° C. for 5 days in a CO2 incubator, the number of survivor cells was measured by the MTT method [Pauwels et al.; J. Virol. […] On the other hand, in order to know the cytotoxicity of the test substance on the MT-4 cells, virus-non-infected cells were incubated, likewise as above, together with the test compound with various changes of the concentration. […] Further, the rough ratio of CC50 to EC50, (CC50 /EC50) is expressed as an effective ratio (SI).

MT-4 cells = test: Cytotoxicity on virus-non-infected MT-4 cells (MTT method); assay type: cell-based
Procedure: as §1

[2] = Table 4, HIV-infected MT-4 cells, MOI 0.001, 5 days
[3] = Table 5, method of Example 2, HIV-infected MT-4 cells
[4] = Table 4, virus-non-infected MT-4 cells, 5 days
[5] = Table 5, method of Example 2, virus-non-infected MT-4 cells

Compound	EC50 [1, 2]	SI ([1]; Table 4)	EC50 [1, 3]	CC50 (MT-4 cells; [4])	CC50 (MT-4 cells; [5])	SI (CC50/EC50) ([1]; Table 5)	anti-HIV activity compared with reference compound (in words) ([1]; text comment on the anti-HIV results)	cytotoxicity compared with reference compound (in words) (MT-4 cells; text comment on Table 4)
N=C(N)NCCC[C@H](NC(=O)[C@@H]1CSSC[C@H](NC(=O)[C@H](Cc2c[nH]c3ccccc23)NC(=O)[C@H](CCCNC(=N)N)NC(=O)[C@@H](N)CCCNC(=N)N)C(=O)N[C@@H](Cc2ccc(O)cc2)C(=O)N[C@@H](CCCNC(=N)N)C(=O)N[C@@H](CCCCN)C(=O)N[C@H]2CSSC[C@H](NC(=O)[C@H](Cc3ccc(O)cc3)NC(=O)CNC(=O)[C@H](CCCCN)NC(=O)[C@H](Cc3ccc(O)cc3)NC2=O)C(=O)N[C@@H](Cc2ccc(O)cc2)C(=O)N[C@@H](CCCNC(=N)N)C(=O)N[C@@H](CCCCN)C(=O)N1)C(N)=O [Polypeptide T-22, reference compound] (H-RRWCYRKCYKGYCYRKCR-NH2; disulfide 4-17, 8-13 (inferred); N-terminus assumed)	0.0099 mg/L (≈ 0.00398 µM)	5,465	0.017 mg/L (≈ 0.00684 µM)	54.1 mg/L (≈ 21.8 µM)	49.4 mg/L (≈ 19.9 µM)	–	–	–
N=C(N)NCCC[C@H](NC(=O)[C@@H]1CSSC[C@H](NC(=O)[C@H](Cc2c[nH]c3ccccc23)NC(=O)[C@H](CCCNC(=N)N)NC(=O)[C@@H](N)CCCNC(=N)N)C(=O)N[C@@H](Cc2ccc(O)cc2)C(=O)N[C@@H](CCCNC(=N)N)C(=O)N[C@@H](CCCCN)C(=O)N[C@H](CCCCN)C(=O)N2CCC[C@H]2C(=O)N[C@@H](Cc2ccc(O)cc2)C(=O)N[C@@H](CCCNC(=N)N)C(=O)N[C@@H](CCCCN)C(=O)N1)C(N)=O [Polypeptide (1), Arg--Arg--Trp--Cys--Tyr--Arg--Lys--DLys--Pro--Tyr--Arg--Lys--Cys--Arg--NH2] (H-RRWCYRK[dK]PYRKCR-NH2; disulfide 4-13)	0.0034 mg/L (≈ 0.0017 µM)	14,647	0.0195 mg/L (≈ 0.00977 µM)	49.8 mg/L (≈ 24.9 µM)	65.37 mg/L (≈ 32.7 µM)	3352	one-third the concentration of T-22; also recorded: slightly higher	the same cytotoxicity as that of T-22; also recorded: extremely low cytotoxicity
N=C(N)NCCC[C@H](NC(=O)[C@@H]1CSSC[C@H](NC(=O)[C@H](Cc2c[nH]c3ccccc23)NC(=O)[C@H](CCCNC(=N)N)NC(=O)[C@@H](N)CCCNC(=N)N)C(=O)N[C@@H](Cc2ccc(O)cc2)C(=O)N[C@@H](CCCNC(=N)N)C(=O)N[C@@H](CCCCN)C(=O)N[C@H](CCCCNC(=O)CCCN)C(=O)N2CCC[C@H]2C(=O)N[C@@H](Cc2ccc(O)cc2)C(=O)N[C@@H](CCCNC(=N)N)C(=O)N[C@@H](CCCCN)C(=O)N1)C(N)=O (H-RRWCYRK[dK](GABA)PYRKCR-NH2; disulfide 4-13)	–	–	0.0165 mg/L (≈ 0.00793 µM)	–	138.07 mg/L (≈ 66.3 µM)	11095	–	–
N=C(N)NCCC[C@H](NC(=O)[C@@H]1CSSC[C@H](NC(=O)[C@H](Cc2c[nH]c3ccccc23)NC(=O)[C@H](CCCNC(=N)N)NC(=O)[C@@H](N)CCCNC(=N)N)C(=O)N[C@@H](Cc2ccc(O)cc2)C(=O)N[C@@H](CCCNC(=N)N)C(=O)N[C@@H](CCCCN)C(=O)N[C@@H](CCCCN)C(=O)NCC(=O)N[C@@H](Cc2ccc(O)cc2)C(=O)N[C@@H](CCCNC(=N)N)C(=O)N[C@@H](CCCCN)C(=O)N1)C(N)=O [Polypeptide (3), Arg--Arg --Trp--Cys--Tyr--Arg--Lys --Lys--Gly --Tyr--Arg--Lys--Cys--Arg--NH2] (H-RRWCYRKKGYRKCR-NH2; disulfide 4-13)	–	–	0.057 mg/L (≈ 0.0291 µM)	–	198.18 mg/L (≈ 101 µM)	3477	–	–
CCCCCCCCCCCCCC(=O)N[C@@H](CCCNC(=N)N)C(=O)N[C@@H](CCCNC(=N)N)C(=O)N[C@@H](Cc1c[nH]c2ccccc12)C(=O)N[C@H]1CSSC[C@@H](C(=O)N[C@@H](CCCNC(=N)N)C(N)=O)NC(=O)[C@H](CCCCN)NC(=O)[C@H](CCCNC(=N)N)NC(=O)[C@H](Cc2ccc(O)cc2)NC(=O)[C@@H]2CCCN2C(=O)[C@@H](CCCCN)NC(=O)[C@H](CCCCN)NC(=O)[C@H](CCCNC(=N)N)NC(=O)[C@H](Cc2ccc(O)cc2)NC1=O [Polypeptide (17), Myr--Arg--Arg --Trp--Cys--Tyr--Arg--Lys --DLys--Pro --Tyr--Arg--Lys--Cys--Arg--NH2] (Myristoyl-RRWCYRK[dK]PYRKCR-NH2; disulfide 4-13)	–	–	0.055 mg/L (≈ 0.0249 µM)	–	106.60 mg/L (≈ 48.3 µM)	1838	–	–
N=C(N)NCCC[C@H](NC(=O)[C@@H]1CSSC[C@H](NC(=O)[C@H](Cc2c[nH]c3ccccc23)NC(=O)[C@H](CCCNC(=N)N)NC(=O)[C@H](CCCNC(=N)N)NC(=S)Nc2ccc3c(c2)C(=O)OC32c3ccc(O)cc3Oc3cc(O)ccc32)C(=O)N[C@@H](Cc2ccc(O)cc2)C(=O)N[C@@H](CCCNC(=N)N)C(=O)N[C@@H](CCCCN)C(=O)N[C@H](CCCCN)C(=O)N2CCC[C@H]2C(=O)N[C@@H](Cc2ccc(O)cc2)C(=O)N[C@@H](CCCNC(=N)N)C(=O)N[C@@H](CCCCN)C(=O)N1)C(N)=O [Polypeptide (19), FTC--Arg--Arg --Trp--Cys--Tyr--Arg--Lys --DLys--Pro --Tyr--Arg--Lys--Cys--Arg--NH2] ({FITC}-RRWCYRK[dK]PYRKCR-NH2; disulfide 4-13)	–	–	–	–	38.47 mg/L (≈ 16.1 µM)	39285	–	–
N=C(N)NCCC[C@H](NC(=O)[C@@H]1CSSC[C@H](NC(=O)[C@H](Cc2c[nH]c3ccccc23)NC(=O)[C@H](CCCNC(=N)N)NC(=O)[C@@H](N)CCCNC(=N)N)C(=O)N[C@@H](Cc2ccc(O)cc2)C(=O)N[C@@H](CCCNC(=N)N)C(=O)N[C@@H](CCCCN)C(=O)N[C@H](CCCN)C(=O)N2CCC[C@H]2C(=O)N[C@@H](Cc2ccc(O)cc2)C(=O)N[C@@H](CCCNC(=N)N)C(=O)N[C@@H](CCCCN)C(=O)N1)C(N)=O [Polypeptide (6), Arg--Arg --Trp--Cys--Tyr--Arg--Lys --DOrn--Pro --Tyr--Arg--Lys--Cys--Arg--NH2] (H-RRWCYRK[dOrn]PYRKCR-NH2; disulfide 4-13)	–	–	–	–	55.93 mg/L (≈ 28.2 µM)	2728	–	–
N=C(N)NCCC[C@H](NC(=O)[C@@H]1CSSC[C@H](NC(=O)[C@H](Cc2c[nH]c3ccccc23)NC(=O)[C@H](CCCNC(=N)N)NC(=O)[C@@H](N)CCCNC(=N)N)C(=O)N[C@@H](Cc2ccc(O)cc2)C(=O)N[C@@H](CCCNC(=N)N)C(=O)N[C@@H](CCCCN)C(=O)N2CCC[C@H]2C(=O)N[C@H](CCCCN)C(=O)N[C@@H](Cc2ccc(O)cc2)C(=O)N[C@@H](CCCNC(=N)N)C(=O)N[C@@H](CCCCN)C(=O)N1)C(N)=O [Polypeptide (5), Arg--Arg --Trp--Cys--Tyr--Arg--Lys --Pro--DLys --Tyr--Arg--Lys--Cys--Arg--NH2] (H-RRWCYRKP[dK]YRKCR-NH2; disulfide 4-13)	–	–	0.076 mg/L (≈ 0.0381 µM)	–	101.20 mg/L (≈ 50.7 µM)	1321	–	–
N=C(N)NCCC[C@H](NC(=O)[C@@H]1CSSC[C@H](NC(=O)[C@H](Cc2c[nH]c3ccccc23)NC(=O)[C@H](CCCNC(=N)N)NC(=O)[C@@H](N)CCCNC(=N)N)C(=O)N[C@@H](Cc2ccc(O)cc2)C(=O)N[C@@H](CCCNC(=N)N)C(=O)N[C@@H](CCCCN)C(=O)N[C@H](CCCCNC(=O)CN)C(=O)N2CCC[C@H]2C(=O)N[C@@H](Cc2ccc(O)cc2)C(=O)N[C@@H](CCCNC(=N)N)C(=O)N[C@@H](CCCCN)C(=O)N1)C(N)=O (H-RRWCYRK[dK](Gly)PYRKCR-NH2; disulfide 4-13)	–	–	0.03 mg/L (≈ 0.0146 µM)	–	44.26 mg/L (≈ 21.6 µM)	–	–	–
CC(=O)N[C@@H](CCCNC(=N)N)C(=O)N[C@@H](CCCNC(=N)N)C(=O)N[C@@H](Cc1c[nH]c2ccccc12)C(=O)N[C@H]1CSSC[C@@H](C(=O)N[C@@H](CCCNC(=N)N)C(N)=O)NC(=O)[C@H](CCCCN)NC(=O)[C@H](CCCNC(=N)N)NC(=O)[C@H](Cc2ccc(O)cc2)NC(=O)[C@@H]2CCCN2C(=O)[C@@H](CCCCN)NC(=O)[C@H](CCCCN)NC(=O)[C@H](CCCNC(=N)N)NC(=O)[C@H](Cc2ccc(O)cc2)NC1=O [Polypeptide (14), Ac--Arg--Arg --Trp--Cys--Tyr--Arg--Lys --DLys--Pro --Tyr--Arg--Lys--Cys--Arg--NH2] (Ac-RRWCYRK[dK]PYRKCR-NH2; disulfide 4-13)	–	–	0.024 mg/L (≈ 0.0118 µM)	–	78.14 mg/L (≈ 38.3 µM)	3256	–	–
